Laboratory results taken from US9428505B2, “Hydantoin derivative” (Chugai Seiyaku Kabushiki Kaisha, priority 2012, dated 2016).
pEC50: −log10 of the molar value.

Columns and labels:
TPTX rat model = assay: Calcemic action in the TPTX rat model; assay type: in vivo; details: TPTX rats, oral 30 mg/kg; for change of serum Ca concentration from the Pre-value: up to 24 hours after administration; for significance of serum Ca change compared to Comparative Examples 1 and 2: p<0.05
Experimental: Calcemic Action in the TPTX Rat Model
Four-week old female Crl:CD(SD) rats were obtained from Charles River Japan (Atsugi Breeding Center), and were acclimated to standard laboratory conditions of 20-26° C. and 35-75% humidity for one week. The rats were given tap water and were fed ad libitum with standard rodent chow (CE-2) (CLEA Japan, Inc.) containing 1.1% calcium, 1.0% phosphoric acid, and 250 IU/100 g of vitamin D3.
TPTX was performed on five-week old rats. Some of the individuals were subjected to sham operation (Sham). Individuals whose serum Ca concentration was less than 8 mg/dL on four days after the operation were selected for use as TPTX rats. On five days after the operation, the rats were assigned to eight TPTX groups and one Sham group (n=5, each group) based on their body weight and serum Ca concentration measured on four days after the operation. The solvent alone was orally administered to the Sham group and the TPTX-Vehicle group at a volume of 10 mL/kg. Each test article was orally administered individually to each TPTX test article group by dissolving it in a solvent at a dose of 30 mg/10 mL/kg. The solvent composition was 10% dimethylsulfoxide (Wako Pure Chemical Industries, Ltd.), 10% Cremophor EL (Sigma-Aldrich Japan LLC), 20% hydroxypropyl-β-cyclodextrin (Nihon Shokuhin Kako Co., Ltd.), glycine (Wako Pure Chemical Industries, Ltd.); and the pH was adjusted to 10. Immediately before administration of each sample, Pre-blood collection was performed, and blood collection was carried out at 2, 6, 10, and 24 hours after administration to measure the serum Ca concentration. Each blood collection was carried out from the jugular vein under isoflurane inhalation anesthesia.
Serum Ca measurement: Serum obtained by centrifugation from the collected blood was measured by using an automatic analyzer TBA-120FR (Toshiba Medical Systems Corporation).
For statistical analysis of the animal studies, data are shown as mean±standard error (SE). Statistical analysis were performed by unpaired test of the SAS Preclinical Package (Ver. 5.00.010720, SAS Institute Japan, Tokyo, Japan).

rat PTH1R = rat PTH1R (Rattus norvegicus (Rat), UniProt P25961); assay: In vitro cAMP signaling activity via the rat PTH1R (LLC-PK46_RATO_PTH1R cells); assay type: cell-based; details: LLC-PK46_RATO_PTH1R cells overexpressing rat PTH1R; for EC20: 20% cAMP signaling activity; for pEC50: 50% cAMP signaling activity
From the text: Measurement of the Compounds' In Vitro cAMP Signaling Activity Via the Rat PTH1R
Instead of HKRK-B7 cells, LLC-PK46_RATO_PTH1R cells overexpressing rat PTH1R, which were established at Chugai Pharmaceutical, were used to take measurements in a similar manner to Test Example 1.

[1] = Metabolic stability using rat hepatocyte; assay type: in vitro ADME; details: for hepatocyte CLint at 1 μM: rat (SD, female) hepatocytes 1×10^6 cells/mL, compound 1 μM, 37° C., read-out: Clearance; for rat hepatocyte metabolic stability compared to Comparative Examples 1, 2, 3, 5, and 6: rat hepatocytes
Experimental: Examination of Metabolic Stability Using Rat Hepatocyte
Liver cells were prepared from the liver of rats (SD, female) by a collagenase perfusion method. A compound of the Examples or a Comparative Example was added, and this was incubated at 37° C. for a specified amount of time, followed by addition of a reaction-stopping solution. The concentration of the parent compound at each reaction time was measured using LC/MS/MS, and inherent clearance (μL/10^6 cells/min) was calculated from the slope of the reaction time versus residual rate.
Cell concentration: 1×10^6 cells/mL
(§1) Compound concentration: 1 μM
Medium: Williams' medium E
Reaction-stopping solution: acetonitrile/2-propanol (4/6, v/v)

[2] = Metabolic stability using human liver microsomes; assay type: in vitro ADME; details: pH 7.4; human liver microsomes 0.5 mg/mL, compound 1 μM, NADPH 1 mM, 37° C.; read-out: Clearance
Experimental: Examination of Metabolic Stability Using Human Liver Microsomes
In 0.1 M phosphate buffer (pH7.4), human liver microsomes were incubated with a compound or a comparative example in the coexistence of NADPH at 37° C. for a specified amount of time. The concentration of the parent compound at each reaction time was measured using LC/MS/MS, and inherent clearance (μL/min/mg protein) was calculated from the slope of the reaction time versus residual rate.
as §1
Reaction time: 0, 5, 15, and 30 minutes

human PTH1R = human PTH1R (Homo sapiens (Human), UniProt Q03431); assay: In vitro cAMP signal activity via the human PTH1R (HKRK-B7 cells); assay type: cell-based; details: 100 nM human PTH(1-34) = 100%; for EC20: concentration giving 20% cAMP signaling activity; for pEC50: concentration giving 50% cAMP signaling activity
Experimental: Measurement of In Vitro cAMP Signal Activity of Compounds Via the Human PTH1R
Human PTH(1-34) and calcitonin were purchased from Peptide Institute, Inc. (Osaka, Japan), dissolved in 10 mM acetic acid to 1 mM and stored in a −80° C. freezer.
Cells were cultured in Dulbecco's modified Eagle's medium (DMEM) supplemented with 10% fetal bovine serum (Hyclone), 100 units/ml penicillin G and 100 μg/ml streptomycin sulfate (Invitrogen Corp) at 37° C. in a humidified atmosphere containing 5% CO2.
cAMP signal transduction analysis utilized LLC-PK1 cells not expressing the PTH1R, and HKRK-B7 cells, that is, LLC-PK1 cells overexpressing the human PTH1R at 9.5×10^5 receptors/cell (Takasu et al., J. Bone. Miner. Res. 14:11-20, 1999).
HKRK-B7 or LLC-PK1 cells were seeded into a 96-well plate at 1×10^5 cells/well and incubated overnight. On the following day, 50 μl of cAMP assay buffer (DMEM, 2 mM IBMX, 0.2 mg/ml bovine serum albumin, 35 mM Hepes-NaOH, pH 7.4) containing human PTH(1-34) or each compound was added and the plate was placed in a 37° C. incubator. The cells were incubated for 20 minutes. After removing the medium, the cells were washed with 100 μl of cAMP assay buffer once. The plate was placed on dry ice powder to freeze the cells and then removed from the dry ice. The cells were lysed with 40 μl of 50 mM HCl and frozen again on dry ice. The amount of intracellular cAMP produced was measured using a commercially available cAMP EIA kit (Biotrack cAMP EIA system, GE health care).
Analyses were performed using a variable gradient S-shaped dose-response curve equation.

Sequence of rat PTH1R (P25961 27-591): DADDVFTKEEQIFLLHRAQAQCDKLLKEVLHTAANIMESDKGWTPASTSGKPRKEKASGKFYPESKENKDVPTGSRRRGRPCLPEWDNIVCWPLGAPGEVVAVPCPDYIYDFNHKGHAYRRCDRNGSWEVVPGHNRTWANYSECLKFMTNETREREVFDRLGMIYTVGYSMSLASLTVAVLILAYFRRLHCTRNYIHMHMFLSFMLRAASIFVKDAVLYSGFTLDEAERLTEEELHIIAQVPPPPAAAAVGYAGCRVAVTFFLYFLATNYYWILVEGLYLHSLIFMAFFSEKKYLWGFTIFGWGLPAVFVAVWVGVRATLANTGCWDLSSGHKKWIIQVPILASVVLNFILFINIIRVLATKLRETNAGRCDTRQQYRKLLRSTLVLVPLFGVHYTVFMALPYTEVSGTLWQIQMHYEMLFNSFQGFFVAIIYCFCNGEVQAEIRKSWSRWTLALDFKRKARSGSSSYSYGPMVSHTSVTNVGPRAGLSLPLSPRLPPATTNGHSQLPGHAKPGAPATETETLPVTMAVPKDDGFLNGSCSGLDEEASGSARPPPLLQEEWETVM
Sequence of human PTH1R (Q03431 27-593): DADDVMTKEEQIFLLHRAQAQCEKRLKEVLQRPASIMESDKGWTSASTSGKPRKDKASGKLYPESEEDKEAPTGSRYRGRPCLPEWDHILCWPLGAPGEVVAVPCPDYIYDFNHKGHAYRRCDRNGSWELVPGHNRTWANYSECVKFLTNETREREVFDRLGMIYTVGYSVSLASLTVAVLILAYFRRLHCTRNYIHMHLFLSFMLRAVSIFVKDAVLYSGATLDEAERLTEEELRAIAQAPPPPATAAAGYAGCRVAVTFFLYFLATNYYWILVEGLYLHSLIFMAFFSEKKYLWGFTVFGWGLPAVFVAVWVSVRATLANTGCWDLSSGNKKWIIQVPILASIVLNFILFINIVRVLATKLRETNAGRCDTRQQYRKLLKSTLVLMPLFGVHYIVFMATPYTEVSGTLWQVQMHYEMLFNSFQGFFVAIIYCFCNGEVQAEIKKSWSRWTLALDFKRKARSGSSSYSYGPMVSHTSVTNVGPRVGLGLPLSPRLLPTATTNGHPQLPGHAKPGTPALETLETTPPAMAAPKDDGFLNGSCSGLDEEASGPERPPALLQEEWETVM

EC20 (rat PTH1R) [µM]	pEC50 (rat PTH1R)	hepatocyte CLint at 1 μM [1] [µL/min/1e6 cells]	microsomal CLint at 1 μM [2] [µL/min/mg]	EC20 (human PTH1R) [µM]	pEC50 (human PTH1R)	rat hepatocyte metabolic stability compared to Comparative Examples 1, 2, 3, 5, and 6 [1]	Compound	achievement of therapeutic target range of serum Ca concentration of 7.6 to 8.8 mg/dL (TPTX rat model)	change of serum Ca concentration from the Pre-value (TPTX rat model)	significance of serum Ca change compared to Comparative Examples 1 and 2 (TPTX rat model)
0.4	5.72	3	35	–	–	increased	Cc1cc(N2C(=O)NC(=O)C23CCCC3)cc(C)c1CCS(=O)(=O)N1CCC2(CC1)N=C(c1ccc(OC(F)(F)F)cc1)NC2=O [Compound 8, 1-(3,5-dimethyl-4-(2-((4-oxo-2-(4-(trifluoromethoxy)phenyl)-1,3,8-triazaspiro[4.5]deca-1-en-8-yl)sulfonyl)ethyl)phenyl)-1,3-diazaspiro[4.4]nonane-2,4-dione]	achieved the therapeutic target range	large positive changes from the Pre-value	statistically significant
3.0	4.92	0.3	29	5.0	4.68	increased	Cc1cc(N2C(=O)NC(=O)C23COC3)cc(C)c1CCS(=O)(=O)N1CCC2(CC1)N=C(c1ccc(OC(F)(F)F)cc1)NC2=O [Compound 10, 5-(3,5-dimethyl-4-(2-((4-oxo-2-(4-(trifluoromethoxy)phenyl)-1,3,8-triazaspiro[4.5]deca-1-en-8-yl)sulfonyl)ethyl)phenyl)-2-oxa-5,7-diazaspiro[3.4]octane-6,8-dione]	–	–	–
0.8	5.49	–	19	1.5	4.96	increased	Cc1cc(N2C(=O)NC(=O)C23CC3)cc(C)c1CCS(=O)(=O)N1CCC2(CC1)N=C(c1ccc(OC(F)(F)F)cc1)NC2=O [Compound 11, 4-(3,5-dimethyl-4-(2-((4-oxo-2-(4-(trifluoromethoxy)phenyl)-1,3,8-triazaspiro[4.5]deca-1-en-8-yl)sulfonyl)ethyl)phenyl)-4,6-diazaspiro[2.4]heptane-5,7-dione]	–	–	–

Second part, the molecule before the results:

Compound	EC20 (rat PTH1R) [µM]	pEC50 (rat PTH1R)	hepatocyte CLint at 1 μM [1] [µL/min/1e6 cells]	microsomal CLint at 1 μM [2] [µL/min/mg]	EC20 (human PTH1R) [µM]	pEC50 (human PTH1R)	rat hepatocyte metabolic stability compared to Comparative Examples 1, 2, 3, 5, and 6 [1]	achievement of therapeutic target range of serum Ca concentration of 7.6 to 8.8 mg/dL (TPTX rat model)	change of serum Ca concentration from the Pre-value (TPTX rat model)	significance of serum Ca change compared to Comparative Examples 1 and 2 (TPTX rat model)
Cc1cc(N2C(=O)CNC2=O)ccc1CCS(=O)(=O)N1CCC2(CC1)N=C(c1cccc(OC(F)(F)F)c1)NC2=O [Comparative Example 1, reference compound]	0.8	5.64	5.8	84	1.5	5.32	–	could not be achieved	smaller positive changes from the Pre-value	–
Cc1cc(N2C(=O)NC(=O)C2(C)C)cc(C)c1CCS(=O)(=O)N1CCC2(CC1)N=C(c1cccc(C(F)(F)F)c1)NC2=O [Compound 6, 1-(3,5-dimethyl-4-(2-((4-oxo-2-(3-(trifluoromethyl)phenyl)-1,3,8-triazaspiro[4.5]deca-1-en-8-yl)sulfonyl)ethyl)phenyl)-5,5-dimethylimidazolidine-2,4-dione]	–	–	1.4	29	2.0	5.05	–	achieved the therapeutic target range	large positive changes from the Pre-value	–
Cc1cc(N2C(=O)NC(=O)C2(C)C)cc(C)c1CCS(=O)(=O)N1CCC2(CC1)N=C(c1ccc(OC(F)(F)F)cc1)NC2=O [Compound 7, 1-(3,5-dimethyl-4-(2-((4-oxo-2-(4-(trifluoromethoxy)phenyl)-1,3,8-triazaspiro[4.5]deca-1-en-8-yl)sulfonyl)ethyl)phenyl)-5,5-dimethylimidazolidine-2,4-dione]	0.5	5.62	0.9	30	1.1	5.39	increased	achieved the therapeutic target range	large positive changes from the Pre-value	statistically significant
